This passage reports IC50, kcat/Km and Km results from US9873883B2, “Glyphosate resistant plants and associated methods” (Dow AgroSciences LLC, priority 2012, dated 2018).

Experiment [1] addresses T1, Glycine max (soybean) EPSP synthase DGT-1 variant DGT-1 v8 (T→I, P→S; TIPS) (Glycine max, UniProt I1J7U9, P187S/T183I).
T1 sequence (I1J7U9 with tags, fused parts or gaps T183I/P187S): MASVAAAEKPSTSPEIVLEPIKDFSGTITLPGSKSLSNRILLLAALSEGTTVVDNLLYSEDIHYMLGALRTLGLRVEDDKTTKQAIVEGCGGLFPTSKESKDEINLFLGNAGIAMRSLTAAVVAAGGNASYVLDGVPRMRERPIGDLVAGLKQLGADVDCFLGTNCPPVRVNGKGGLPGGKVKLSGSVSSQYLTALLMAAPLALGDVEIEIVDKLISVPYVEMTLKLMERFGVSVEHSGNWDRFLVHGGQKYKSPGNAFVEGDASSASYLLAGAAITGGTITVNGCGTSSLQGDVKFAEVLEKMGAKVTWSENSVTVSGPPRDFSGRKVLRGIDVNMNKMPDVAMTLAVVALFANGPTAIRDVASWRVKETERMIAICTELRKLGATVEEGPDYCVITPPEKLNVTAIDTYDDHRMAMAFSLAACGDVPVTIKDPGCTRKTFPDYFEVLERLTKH
Nature of the experiment: In vitro kinetic assay (inorganic phosphate production, malachite green). The format is biochemical. The source says:
The following Class I enzymes: DGT-1 from Glycine max, DGT-3 from Brassica napus (GENBANK ACC NO: P17688), and DGT-7 from Triticum aestivum (GENBANK ACC NO: EU977181) were used as a comparison. The Class I EPSP synthase enzymes and mutant variants thereof were synthesized and evaluated. A mutation introduced into the plant EPSP synthase enzymes consisted of the Glycine to Alanine mutation made within the EPSP synthase enzyme at a similar location as that of the G96A mutation from the E. coli version of the enzyme. In addition, Threonine to Isoleucine and Proline to Serine mutations were introduced within these Class I EPSP synthase enzymes at analogous positions as that of amino acid 97 (T to I) and amino acid 101 (P to S) in the EPSP synthase of E. coli as described in Funke et al., (2009).
The location of the amino acid residue which was mutated from glycine to alanine is indicated by the first asterisk. The location of the amino acid residue which was mutated from threonine to isoleucine is indicated by the second asterisk. The location of the third amino acid residue which was mutated from proline to serine is indicated by the third asterisk. These mutations were introduced into different versions of DGT-1, DGT-3, and DGT-7. The different versions of the genes which contain the mutations are described in more detail below.
Additional constructs containing the dgt-1, dgt-3 and dgt-7 were synthesized. These constructs were used for in vitro testing of the dgt-1 v5, dgt-1 v6, dgt-1 v7, dgt-1 v8, dgt-3 v6, dgt-3 v7, dgt-3 v8, dgt-7 v5, dgt-7 v6, dgt-7 v7, and dgt-7 v8 gene sequences were outsourced to GeneArt for synthesis and cloning. The synthesized genes were cloned into the pET28 expression vector. The resulting constructions were labeled as pDAB102028 containing dgt-1 v5, pDAB102029 containing dgt-1 v6, pDAB102032 containing dgt-1 v7, pDAB102034 containing dgt-1 v8, pDAB100429 containing dgt-3 v6, pDAB100442 containing dgt-3 v7, pDAB100430 containing dgt-3 v8, pDAB102036 containing dgt-7 v5, pDAB102038 containing dgt-7 v6, pDAB102040 containing dgt-7 v7, and pDAB102042 containing dgt-7 v8.
(§1) Recombinant DGT proteins were overexpressed in Rosetta2™ (DE3) cells (Novagen, Madison, Wis.) from the constructs described above. A single colony was used to inoculate 50 mL starter cultures of LB containing chloramphenicol (25 μg/mL) and kanamycin (50 μg/mL) which were cultivated overnight at 37° C. The overnight cultures were used to inoculate 1 L of LB containing chloramphenicol (25 μg/mL) and kanamycin (50 μg/mL). The cultures were grown at 37° C. to an O.D.600=0.6 then placed in an ice water bath for 10 minutes. Expression of the target proteins was achieved by addition of IPTG to a final concentration of 500 μM. Induction was allowed to proceed overnight at 20° C. followed by harvesting via centrifugation at 8,000 rpm for 20 minutes. The cell pellets were stored at −80° C. until required for purification. All purification steps were carried out at 4° C.
Cell pellets from 1 L cultures were resuspended in 20-30 mL Buffer A (50 mM HEPES pH 7.5, 150 mM KCl, 2 mM DTT, 1 mM EDTA, 20 mM imidazole, and 5% glycerol). COMPLETE™ protease inhibitor cocktail (1 tablet/50 mL, Roche, Indianapolis, Ind.) and lysozyme (1 mg/mL, Sigma-Aldrich, St. Louis, Mo.) were then added and the suspension was stirred for 20 minutes. Cell lysis was performed using a Branson Sonifier 250 (3×60 second bursts) followed by removal of the cell debris by centrifugation at 16,000 rpm for 45 minutes. DGT enzymes were purified to homogeneity in one step via immobilized metal affinity chromatography (IMAC) using a 5 mL HisTrap FF crude column. The column was equilibrated in Buffer A and the sample was loaded in the same buffer. The column was then washed with 10 column volumes of Buffer A followed by elution in a 0-100% Buffer B (50 mM HEPES pH 7.5, 200 mM KCl, 2 mM DTT, 1 mM EDTA, 500 mM imidazole, and 5% glycerol) linear gradient over 25 column volumes. […]

For experiment [2], the system named is bacterial EPSP synthase DGT-12 (GENBANK ZP_01622155.1) variant DGT-12 v6 (G→A at residue 111), SEQ ID NO:7. The description is as above. It counts as biochemical.
Excerpt: The novel DGT-14, DGT-12, DGT-18, DGT-29 and DGT-30 enzymes were obtained and the glycine to alanine mutation was introduced into the EPSP synthase enzymes at a location analogous to the G96A location described for the E. coli version of the EPSP synthase enzyme. The DGT-14 protein sequence was modified by introducing an alanine to replace the endogenous glycine of GENBANK ACC NO: ZP_01452683 at amino acid residue 101, thereby resulting in SEQ ID NO:1. The DGT-12 protein sequence was modified by introducing an alanine to replace the endogenous glycine of GENBANK ACC NO: ZP_01622155.1 at amino acid residue 111, thereby resulting in SEQ ID NO:7. The DGT-18 protein sequence was modified by introducing an alanine to replace the endogenous glycine of GENBANK ACC NO: NP_928909.1 at amino acid residue 96, thereby resulting in SEQ ID NO:9. The DGT-29 protein sequence was modified by introducing an alanine to replace the endogenous glycine of GENBANK ACC NO: YP_322772.1 at amino acid residue 96, thereby resulting in SEQ ID NO:11. The DGT-30 protein sequence was modified by introducing an alanine to replace the endogenous glycine of GENBANK ACC NO: ZP_02156189.1 at amino acid residue 96, thereby resulting in SEQ ID NO:13.
The synthesized genes were cloned into the pET28 expression vector.
as §1, with “The cell pellets were stored at −80° C. until required for purification. All purification steps were carried out at 4° C.” left out

The structures appear in SMILES notation.

Usually IC50 stands for the concentration that inhibits the measured activity by half. In the case of `O=C(O)CNCP(=O)(O)O` [glyphosate, N-(phosphonomethyl)glycine], the IC50 in experiment [1] (IC50 (glyphosate), at 60 μM PEP) was 5.9 mM; in experiment [1] (IC50 (glyphosate), at 1 mM PEP), 13.3 mM; in experiment [1] (tolerance to glyphosate, PEP concentration not given) it was 3 to 6 mM; in experiment [2] (at 1 mM PEP, read-out: IC50 (glyphosate)) it was 4 mM.

As usually defined, the kcat/Km is the turnover number divided by the Michaelis constant. For orientation: Km means the substrate concentration at which the rate is half of its maximum. Regarding `C=C(OP(=O)(O)O)C(=O)O` [PEP, phosphoenolpyruvate], the kcat/Km in experiment [1] (PEP, pH 7.5, 1 mM S3P) is 12300 M⁻¹ s⁻¹; in experiment [2] (PEP, pH 7.5, 1 mM S3P), 700 M⁻¹ s⁻¹. In addition, in experiment [2] (read-out: Km for PEP, pH 7.5, 1 mM S3P), the Km is 128 µM.
